From publication doi:10.1101/2020.09.15.275891v2 (biorxiv, 2020) come the findings set out here.

Data set [1] is described as follows: in vitro. Conditions: human, caco-2 cells.
Data set [2] has as its target mature MHV M^pro (Murine hepatitis virus strain A59, UniProt P0C6X9). Nature of the data set: fluorogenic peptide cleavage. The format is biochemical.
The target of data set [3] is mature SARSCoV2 M^pro (Severe acute respiratory syndrome coronavirus 2, UniProt P0DTD1). Kind of data set: biochemical.

mature MHV M^pro, sequence (P0C6X9 3334-3635): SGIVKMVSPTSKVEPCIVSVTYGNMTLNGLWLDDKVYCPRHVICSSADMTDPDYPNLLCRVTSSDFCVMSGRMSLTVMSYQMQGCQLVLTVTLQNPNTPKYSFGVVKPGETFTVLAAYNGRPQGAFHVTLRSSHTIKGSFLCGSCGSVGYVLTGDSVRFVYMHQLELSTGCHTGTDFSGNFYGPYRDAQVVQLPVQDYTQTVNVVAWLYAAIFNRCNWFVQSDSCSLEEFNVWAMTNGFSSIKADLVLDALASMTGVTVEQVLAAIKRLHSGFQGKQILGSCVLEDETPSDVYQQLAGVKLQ

One may read the CC50 as the concentration giving 50% cytotoxicity. Turning to `CC(C)C[C@H](NC(=O)OCc1ccccc1)C(=O)N[C@@H](C[C@@H]1CCNC1=O)C(O)S(=O)(=O)O` (some centres unmarked) [GC-376], the CC50 in data set [1] is greater than 100 µM.

As usually defined, the IC50 is the concentration that inhibits the measured activity by half. Compound `CC(C)(C)NC(=O)N[C@H](C(=O)N1C[C@H]2[C@@H]([C@H]1C(=O)N[C@@H](C[C@@H]1CCNC1=O)C(=O)C(N)=O)C2(C)C)C(C)(C)C` [ML1000] yielded a CC50 in data set [1] greater than 100 µM. In addition, the IC50 in data set [2] was found to be 0.13 ± 0.025 µM.

`CC(C)(C)NC(=O)N[C@H](C(=O)N1C[C@@H]2CCC[C@@H]2[C@H]1C(=O)N[C@@H](C[C@@H]1CCNC1=O)C(=O)C(N)=O)C(C)(C)C` [ML1100] returned a CC50 in data set [1] greater than 100 µM. Moreover, the IC50 in data set [2] was 0.301 ± 0.152 µM; in data set [3], 0.147 ± 0.008 µM.

Turning to `CC(C)(C)NC(=O)N[C@H](C(=O)N1C[C@H]2[C@@H]([C@H]1C(=O)NC(CC1CCC1)C(=O)C(N)=O)C2(C)C)C(C)(C)C` (some centres unmarked) [boceprevir], the CC50 in data set [1] is greater than 100 µM. In addition, the IC50 in data set [2] was found to be 15 ± 7 µM.
